How the values were obtained:
[1] = molecular target: Sodium-dependent serotonin transporter (Homo sapiens, UniProt P31645); test: Displacement of [3H]paroxetine from human 5HTT
[2] = molecular target: Sodium-dependent dopamine transporter (Homo sapiens, UniProt Q01959); test: Displacement of [3H]WIN-35428 from human DAT
[3] = molecular target: Sodium-dependent noradrenaline transporter (Homo sapiens, UniProt P23975); test: Displacement of [3H]nisoxetine from human NET
Sodium-dependent noradrenaline transporter, sequence (P23975 whole entry): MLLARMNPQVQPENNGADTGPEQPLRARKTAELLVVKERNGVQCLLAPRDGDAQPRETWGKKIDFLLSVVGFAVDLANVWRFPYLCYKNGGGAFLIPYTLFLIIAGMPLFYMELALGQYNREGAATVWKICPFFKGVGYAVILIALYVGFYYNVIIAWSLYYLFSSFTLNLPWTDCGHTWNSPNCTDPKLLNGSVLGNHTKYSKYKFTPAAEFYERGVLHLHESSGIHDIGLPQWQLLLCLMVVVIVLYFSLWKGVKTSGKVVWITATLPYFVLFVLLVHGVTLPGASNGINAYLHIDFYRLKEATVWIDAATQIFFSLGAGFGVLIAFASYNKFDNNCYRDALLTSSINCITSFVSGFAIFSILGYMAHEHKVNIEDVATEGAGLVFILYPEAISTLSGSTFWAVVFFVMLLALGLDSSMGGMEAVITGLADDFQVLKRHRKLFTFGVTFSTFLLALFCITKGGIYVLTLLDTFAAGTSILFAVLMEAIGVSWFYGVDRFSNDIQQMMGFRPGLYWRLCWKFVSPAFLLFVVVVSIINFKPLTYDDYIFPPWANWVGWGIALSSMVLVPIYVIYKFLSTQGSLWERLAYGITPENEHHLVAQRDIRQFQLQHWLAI

Sodium-dependent serotonin transporter, sequence (P31645 whole entry): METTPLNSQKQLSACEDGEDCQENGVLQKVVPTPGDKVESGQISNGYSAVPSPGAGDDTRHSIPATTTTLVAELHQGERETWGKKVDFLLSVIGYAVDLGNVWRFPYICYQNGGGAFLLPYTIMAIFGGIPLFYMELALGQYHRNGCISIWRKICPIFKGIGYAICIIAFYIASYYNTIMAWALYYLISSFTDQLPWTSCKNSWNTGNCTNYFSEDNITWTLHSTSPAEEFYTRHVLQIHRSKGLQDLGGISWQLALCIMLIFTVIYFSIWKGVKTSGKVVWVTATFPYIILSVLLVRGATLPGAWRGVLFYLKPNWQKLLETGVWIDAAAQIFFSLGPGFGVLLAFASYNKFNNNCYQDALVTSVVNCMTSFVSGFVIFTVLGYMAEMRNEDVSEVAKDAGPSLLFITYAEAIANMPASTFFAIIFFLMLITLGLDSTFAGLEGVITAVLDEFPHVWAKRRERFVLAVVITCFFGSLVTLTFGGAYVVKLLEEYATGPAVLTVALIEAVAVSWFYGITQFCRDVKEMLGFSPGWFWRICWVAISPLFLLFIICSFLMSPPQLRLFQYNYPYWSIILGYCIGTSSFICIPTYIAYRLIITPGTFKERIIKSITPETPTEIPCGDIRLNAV
Sodium-dependent dopamine transporter, sequence (Q01959 whole entry): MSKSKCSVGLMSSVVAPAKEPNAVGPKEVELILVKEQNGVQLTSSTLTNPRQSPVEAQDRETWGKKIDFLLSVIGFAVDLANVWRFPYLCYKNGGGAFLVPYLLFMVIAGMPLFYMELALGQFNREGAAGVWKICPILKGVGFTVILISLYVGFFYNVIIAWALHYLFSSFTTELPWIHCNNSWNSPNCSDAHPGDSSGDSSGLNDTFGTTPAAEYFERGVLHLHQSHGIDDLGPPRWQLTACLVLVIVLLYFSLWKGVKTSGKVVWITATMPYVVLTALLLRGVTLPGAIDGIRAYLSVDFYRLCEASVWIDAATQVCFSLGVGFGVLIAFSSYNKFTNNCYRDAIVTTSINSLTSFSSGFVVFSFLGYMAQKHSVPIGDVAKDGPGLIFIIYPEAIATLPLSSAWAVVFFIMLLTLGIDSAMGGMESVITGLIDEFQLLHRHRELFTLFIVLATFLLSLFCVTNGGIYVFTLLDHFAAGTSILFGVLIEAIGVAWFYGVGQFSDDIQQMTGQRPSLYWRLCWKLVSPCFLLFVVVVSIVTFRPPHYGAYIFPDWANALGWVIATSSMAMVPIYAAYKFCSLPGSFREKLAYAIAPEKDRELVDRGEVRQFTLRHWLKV

CN1CCCCCCCCCCCC(=O)OCC2C(CC3CCC2N3C)c2ccc1cc2 (stereo not given)
IC50 [1]: 0.45 µM | Ki [1]: 0.11 µM | IC50 [2]: 0.49 µM | Ki [3]: > 2 µM

CN1C2CCC1C1COC(=O)CCC3(CCC(=O)Nc4ccc(cc4)C1C2)c1ccccc1-c1ccccc13 (stereo not given)
IC50 [1]: > 2 µM | IC50 [2]: 0.29 µM | IC50 [3]: 0.98 µM | Ki [3]: 0.49 µM

CN1C2CCC1C1COC(=O)CCCCCCCCC(=O)Nc3ccc(cc3)C1C2 (stereo not given)
IC50 [1]: 0.0078 µM | Ki [1]: 0.0019 µM | IC50 [2]: 0.13 µM | IC50 [3]: 2.8 µM | Ki [3]: 1.4 µM

CN1C2CCC1C1COC(=O)CCCCCCCC(=O)Nc3ccc(cc3)C1C2 (stereo not given)
Ki [1]: > 2 µM | IC50 [2]: 0.41 µM | Ki [3]: > 2 µM

CN1C2CCC1C1COC(=O)Cc3ccc(cc3)CC(=O)Nc3ccc(cc3)C1C2 (stereo not given)
Ki [1]: > 2 µM | IC50 [2]: > 2 µM | Ki [3]: > 2 µM

CN1CCCCCCCCCC(=O)OCC2C(CC3CCC2N3C)c2ccc1cc2 (stereo not given)
IC50 [1]: 0.38 µM | Ki [1]: 0.094 µM | IC50 [2]: 0.15 µM | IC50 [3]: 2.13 µM | Ki [3]: 1.06 µM

CN1C2CCC1C1COC(=O)CCC(=O)CCC(=O)Nc3ccc(cc3)C1C2 (stereo not given)
IC50 [1]: 5.01 µM | Ki [1]: 1.23 µM | IC50 [2]: 0.16 µM | IC50 [3]: 1.4 µM | Ki [3]: 0.71 µM

CN1C2CCC1C1COC(=O)CCCCC(=O)Nc3ccc(cc3)C1C2 (stereo not given)
IC50 [1]: > 2 µM | IC50 [2]: 0.89 µM | Ki [3]: > 2 µM

CN1C2CCC1C1COC(=O)CCCCCCCCCCC(=O)Nc3ccc(cc3)C1C2 (stereo not given)
IC50 [1]: 1.2 µM | Ki [1]: 0.29 µM | IC50 [2]: 0.39 µM | IC50 [3]: 2.32 µM | Ki [3]: 1.16 µM

CN1C(=O)CCCCCCCCC(=O)OCC2C(CC3CCC2N3C)c2ccc1cc2 (stereo not given)
Ki [1]: > 2 µM | IC50 [2]: 1.92 µM | Ki [3]: > 2 µM

CN1C2CCC1C1COC(=O)CCSCCC(=O)Nc3ccc(cc3)C1C2 (stereo not given)
IC50 [1]: 6.73 µM | Ki [1]: 1.65 µM | IC50 [2]: 0.17 µM | IC50 [3]: 0.99 µM | Ki [3]: 0.5 µM

CN1C2CCC1C1COC(=O)CCCCCCC(=O)Nc3ccc(cc3)C1C2 (stereo not given)
IC50 [1]: 2.09 µM | Ki [1]: 0.513 µM | IC50 [2]: 0.07 µM | IC50 [3]: 3.04 µM | Ki [3]: 1.52 µM

CN1C2CCC1C1COC(=O)CCCCCC(=O)Nc3ccc(cc3)C1C2 (stereo not given)
IC50 [1]: 0.2 µM | Ki [1]: 0.05 µM | IC50 [2]: 0.0038 µM | IC50 [3]: 0.04 µM | Ki [3]: 0.02 µM
